The record followed here is US20240109898A1, “SUBSTITUTED PYRAZOLO[1,5-A]PYRIMIDINE-7-AMINE DERIVATIVES, COMPOSITIONS AND PHARMACEUTICAL USES THEREOF” (SHANGHAI HAIYAN PHARMACEUTICAL TECHNOLOGY CO., LTD., priority 2021, published 2024).

A value given as a limit tells only on which side of the number the result lay.

Broadly, the IC50 is the concentration needed to halve the response being measured. A high value points to lower potency.

CDK9/CycT, sequence (P50750 whole entry): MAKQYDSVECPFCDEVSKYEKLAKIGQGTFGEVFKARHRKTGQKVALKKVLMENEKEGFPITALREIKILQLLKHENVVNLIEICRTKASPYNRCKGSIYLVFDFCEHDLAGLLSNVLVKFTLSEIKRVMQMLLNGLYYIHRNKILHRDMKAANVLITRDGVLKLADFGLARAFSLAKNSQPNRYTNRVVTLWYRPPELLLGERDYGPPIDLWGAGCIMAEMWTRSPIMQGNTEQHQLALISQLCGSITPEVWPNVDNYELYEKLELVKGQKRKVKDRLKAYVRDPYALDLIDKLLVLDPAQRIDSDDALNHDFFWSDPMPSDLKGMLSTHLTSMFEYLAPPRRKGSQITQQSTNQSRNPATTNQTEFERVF
CDK9/CycT, sequence (O60563 whole entry partner): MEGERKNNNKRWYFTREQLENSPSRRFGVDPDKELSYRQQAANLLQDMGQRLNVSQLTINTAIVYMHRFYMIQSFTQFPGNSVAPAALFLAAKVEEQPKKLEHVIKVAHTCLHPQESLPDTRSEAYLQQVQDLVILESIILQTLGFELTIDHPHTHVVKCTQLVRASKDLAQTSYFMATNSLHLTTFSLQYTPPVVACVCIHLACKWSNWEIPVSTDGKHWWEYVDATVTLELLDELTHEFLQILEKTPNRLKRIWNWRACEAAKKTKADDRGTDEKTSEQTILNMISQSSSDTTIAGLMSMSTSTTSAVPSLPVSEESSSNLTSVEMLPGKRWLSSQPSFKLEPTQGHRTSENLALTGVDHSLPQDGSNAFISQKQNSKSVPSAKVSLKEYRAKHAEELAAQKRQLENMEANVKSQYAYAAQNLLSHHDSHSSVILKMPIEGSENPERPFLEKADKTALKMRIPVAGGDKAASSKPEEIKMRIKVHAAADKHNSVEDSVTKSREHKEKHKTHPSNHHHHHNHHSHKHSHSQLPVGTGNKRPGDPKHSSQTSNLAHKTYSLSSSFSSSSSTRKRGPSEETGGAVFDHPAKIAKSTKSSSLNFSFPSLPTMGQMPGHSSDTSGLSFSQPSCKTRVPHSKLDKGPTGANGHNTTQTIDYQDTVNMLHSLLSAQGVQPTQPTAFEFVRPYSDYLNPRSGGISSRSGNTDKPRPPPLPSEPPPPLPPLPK

The first data set addresses CDK9/CycT (Homo sapiens (Human), UniProt P50750). Briefly: LANCE Ultra kinase activity inhibition assay, CDK9/CycT. The format is biochemical. To be noted: ATP 10 μM, highest compound concentration 1 μM. The protocol:
(§1) In the following LANCE Ultra test methods, kinase reagents were purchased from Carna Bioscience, reaction substrates and detection reagents were purchased from PerkinElmer, and the remaining reagents were purchased from Thermo scientific.
The inhibiting effects on the kinase activity of CDK1/CycB (Carna bioscience, #04-102), CDK2/CycA (Carna bioscience, #04-103) and CDK9/CycT (Carna bioscience, #04-110) were determined by using LANCE Ultra method.
The kinase activity test was performed using a system (10 μL) containing the following components: substrate diluent prepared by mixing CDK kinase diluent, Ulight-Myelic basic protein (Perkin Elmer, #TRF-0109, hereinafter referred to as U-MBP) and ATP (Thermo scientific, #PV3227); and the compounds (i.e., analyte) prepared in the examples of the present disclosure. The assay for each kinase includes three test groups, i.e., a background group (Blank), a non-inhibition group (PC), and compound testing group (Test). The components included in each test group were as follows:
(§2) Working concentrations of the respective components of the Test groups in different kinase reactions were as follows.
(§3) Compounds: 10 mM of the compound to be tested was dissolved at room temperature and diluted with DMSO to gradient concentrations, followed by diluting with deionized water to prepare a 4× working solution of the compound, and the content of DMSO was 2%. The highest concentration of compound used in the CDK1 and CDK2 assays was 10 μM, and that in CDK9 assay was 1 μM.
1.33×reaction buffer: the components include 26.7 mM of MOPS, 6.67 mM of MgCl2, and 0.0133% Tween-20, which were stored in a 4° C. refrigerator and protected from light after preparation. Freshly prepared DTT was added to a final concentration of 5.33 mM before use.
(§4) The working concentration of DMSO in the reaction was 0.5%.
(§5) The above-mentioned components, after being mixed, were placed on a shaker and incubated at room temperature in the dark for 1 h. 10 μL of test solution was then added to all test groups (including Blank, PC and Test groups).
10 μL of test solution contains the following components: 16 mM of EDTA (Thermo scientific, #15575), 1 nM of phosphorylated U-MBP protein antibody (Perkin Elmer, #TRF-0201), and 1× detection damping fluid (Perkin Elmer, #CR97-100).
After the test solution was added, the solution was placed on a shaker and continually incubated at room temperature for 1 h in the dark. At the end of incubation, Victor X5 fluorescence microplate reader of Perkin Elmer was used to read the signal; the wavelength of excitation light was 320 nm, and the wavelengths of emission light were 615 nm and 665 nm. The inhibition rate was calculated as below.
1. For all groups, a value of 665 nm/615 nm (hereinafter referred to as Ratio) was calculated, and an inhibition rate was calculated based on the Ratio of each group;
(§6) 2. Inhibition rate=(PCRatio-TestRatio)/(PCRatio-BlankRatio)*100%; and
(§7) 3. XLFIT 5.0 software (IDBS, UK) was used to fit a graph by using the logarithmic value of the compound concentration as the X-axis and the inhibition rater as the Y-axis, and a four-parameter model was used to calculate the half inhibitory concentration IC50 of the compound.
In general terms: In TR-FRET formats the signal depends on donor and acceptor labels being close together.
In turn, `C=CC(C)(C)c1cc(N[C@H]2CC[C@H](N)C2)n2ncc(Cl)c2n1` [Compound Z-56] had an IC50 of 0.013 µM.

In turn, `CC[C@@H](c1cc(N[C@H]2CC[C@H](N)C2)n2nccc2n1)C1CC1` [Compound Z-28-P1] showed an IC50 of 0.006 µM.

Turning to `CC(=N)N[C@H]1CC[C@H](Nc2cc(C(C)C3CC3)nc3c(F)cnn23)C1` (stereo partly shown) [Compound Z-72], the IC50 amounted to 0.02 µM.

Consider `N[C@H]1CC[C@H](Nc2cc([C@@H](F)C3CCC3)nc3ccnn23)C1` [Compound Z-41-P1], for which it took 0.047 µM to reach half-maximal inhibition (IC50).

The compound `CC(c1cc(N[C@H]2CC[C@H](N)C2)n2nccc2n1)C1CCCC1` (stereo partly shown) [Compound Z-13] had an IC50 of 0.018 µM.

A further data set deals with CDK1/CycB (Homo sapiens (Human), UniProt P06493). Briefly: LANCE Ultra kinase activity inhibition assay, CDK1/CycB. The data set is classed as biochemical. To be noted: ATP 4 μM, highest compound concentration 10 μM.
CDK1/CycB, sequence (P06493 whole entry): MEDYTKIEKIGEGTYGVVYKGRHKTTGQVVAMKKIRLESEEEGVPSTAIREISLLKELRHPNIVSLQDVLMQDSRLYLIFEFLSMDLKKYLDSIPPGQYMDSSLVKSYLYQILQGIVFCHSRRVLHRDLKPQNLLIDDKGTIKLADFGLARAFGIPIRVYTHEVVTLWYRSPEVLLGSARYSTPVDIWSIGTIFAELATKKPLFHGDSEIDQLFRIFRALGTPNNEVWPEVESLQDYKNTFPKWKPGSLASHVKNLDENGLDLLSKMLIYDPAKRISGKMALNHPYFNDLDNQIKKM
CDK1/CycB, sequence (P14635 whole entry partner): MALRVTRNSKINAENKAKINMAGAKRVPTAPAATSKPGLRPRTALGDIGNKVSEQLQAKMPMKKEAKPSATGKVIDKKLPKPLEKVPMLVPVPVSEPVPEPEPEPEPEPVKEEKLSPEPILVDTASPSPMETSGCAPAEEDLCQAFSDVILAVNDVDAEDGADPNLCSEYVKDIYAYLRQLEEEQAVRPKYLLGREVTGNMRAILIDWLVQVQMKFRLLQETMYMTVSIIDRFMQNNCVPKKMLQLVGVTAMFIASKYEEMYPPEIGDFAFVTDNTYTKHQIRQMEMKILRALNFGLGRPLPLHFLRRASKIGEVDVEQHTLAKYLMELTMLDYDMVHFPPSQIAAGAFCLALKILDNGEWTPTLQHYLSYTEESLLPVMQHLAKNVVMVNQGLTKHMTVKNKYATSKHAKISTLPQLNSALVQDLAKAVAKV
Excerpt: as §1
(§8) The assay for each kinase includes three test groups, i.e., a background group (Blank), a non-inhibition group (PC), and compound testing group (Test). The components included in each test group were as follows:
as §2, §3, §4, §5
(§9) After the test solution was added, the solution was placed on a shaker and continually incubated at room temperature for 1 h in the dark. […] The inhibition rate was calculated as below.
as §6, §7
As for `C=CC(C)(C)c1cc(N[C@H]2CC[C@H](N)C2)n2ncc(Cl)c2n1` [Compound Z-56], inhibition was half-maximal at 2.48 µM (IC50).

`CC[C@@H](c1cc(N[C@H]2CC[C@H](N)C2)n2nccc2n1)C1CC1` [Compound Z-28-P1] yielded an IC50 of 2.05 µM.

As to `CC(=N)N[C@H]1CC[C@H](Nc2cc(C(C)C3CC3)nc3c(F)cnn23)C1` (stereo partly shown) [Compound Z-72], the IC50 worked out at 4.89 µM.

`N[C@H]1CC[C@H](Nc2cc([C@@H](F)C3CCC3)nc3ccnn23)C1` [Compound Z-41-P1] returned an IC50 of 4.59 µM.

The compound `CC(c1cc(N[C@H]2CC[C@H](N)C2)n2nccc2n1)C1CCCC1` (stereo partly shown) [Compound Z-13] came in with an IC50 of 1.34 µM.

Another data set addresses CDK2/CycA (Homo sapiens (Human), UniProt P24941). The experiment in a line: LANCE Ultra kinase activity inhibition assay, CDK2/CycA. The format is biochemical. Particulars: ATP 10 μM, highest compound concentration 10 μM.
Excerpt: as §1, §8, §2, §3, §4, §5, §9, §6, §7
Consider `C=CC(C)(C)c1cc(N[C@H]2CC[C@H](N)C2)n2ncc(Cl)c2n1` [Compound Z-56], for which the IC50 turned out to be 3.78 µM.

`CC[C@@H](c1cc(N[C@H]2CC[C@H](N)C2)n2nccc2n1)C1CC1` [Compound Z-28-P1] registered an IC50 of 4.51 µM.

Turning to `CC(=N)N[C@H]1CC[C@H](Nc2cc(C(C)C3CC3)nc3c(F)cnn23)C1` (stereo partly shown) [Compound Z-72], the IC50 was 6.57 µM.

In turn, `N[C@H]1CC[C@H](Nc2cc([C@@H](F)C3CCC3)nc3ccnn23)C1` [Compound Z-41-P1] yielded an IC50 of over 10 µM.

`CC(c1cc(N[C@H]2CC[C@H](N)C2)n2nccc2n1)C1CCCC1` (stereo partly shown) [Compound Z-13] returned an IC50 of 7.62 µM.

System in the next data set: not listed separately
The experiment in a line: In vivo pharmacokinetics in mice. To be noted: mouse, plasma, po; male ICR mice, intragastric 10 mg/kg; read-out: Area under the oral curve AUC0-t. The protocol: To investigate the pharmacokinetic behaviors of the compounds according to the present disclosure in mice and evaluate the pharmacokinetic characteristics thereof, the plasma concentrations of the compounds according to the present disclosure in mice at different time points after intravenous injection and intragastric administration of the compounds were determined by LC/MS/MS.
Experimental Protocol: • Experimental animals: healthy adult male ICR mice (12 mice with body weight of 30-40 g, free water and diet for intravenous injection group, and fasted overnight for intragastric administration group, free water and diet after 4 hours of administration) were provided by Beijing Vital River Laboratory Animal Co. LTD; • Administration route and dosage: the ICR mice were administrated intravenously via the tail vein (2 mg/kg, 5% DMSO, pH 4.5 20% Captisol) and intragastrically (10 mg/kg, 5% DMSO, pH 4.5 20% Captisol).
Blood sample collection: prior to the administration, animals satisfying the experimental requirements were selected, weighed and marked. Before collecting blood samples, the mice were tied together, and the blood of each administrated mouse was collected at the respective scheduled time points (for the intravenous administration, the blood was collected at 0.083 h, 0.25 h, 0.5 h, 1 h, 2 h, 4 h, 6 h, 7.5 h, and 24 h after the administration, respectively, for a total of 9 time points; for the intragastric administration, the blood was collected at 0.083 h, 0.25 h, 0.5 h, 1 h, 2 h, 4 h, 6 h, 7.5 h, and 24 h after the administration, respectively, for a total of 9 time points), about 100 μL of blood was collected from orbit. The blood was transferred to a 1.5 mL tube, which was pre-filled with K2EDTA, centrifuged for 4 minutes (8000 rpm, 4° C.), and the plasma removed within 15 minutes, which all the steps were finished in 15 minutes after the collection of blood samples. All samples were stored in −20° C. refrigerator before sample analysis. The drug concentrations were determined using the LC/MS/MS method, the pharmacokinetic parameters of the compounds of some examples of the present disclosure in mice at the same dosage and administration routes were lists in Table 3: […]
As to `C[C@H](c1cc(N[C@H]2CC[C@H](N)C2)n2nccc2n1)C1CCC1` [Compound Z-11-P1], the AUC(0-t) is 2960 ng·h/mL.

Take `CCC(CC)c1cc(N[C@H]2CC[C@H](N)C2)n2nccc2n1` [Compound D, reference compound]: the AUC(0-t) turned out to be 1190 ng·h/mL.

Take `C=CC(C)(C)c1cc(N[C@H]2CC[C@H](N)C2)n2ncc(Cl)c2n1` [Compound Z-56]: the AUC(0-t) was 6090 ng·h/mL.

The data set is the same for the next values; noted with them: mouse, plasma, po; male ICR mice, intragastric 10 mg/kg; read-out: Oral maximum plasma concentration Cmax(ng/mL).
`C[C@H](c1cc(N[C@H]2CC[C@H](N)C2)n2nccc2n1)C1CCC1` [Compound Z-11-P1]: the Cmax stood at 379 ng/mL.

`CCC(CC)c1cc(N[C@H]2CC[C@H](N)C2)n2nccc2n1` [Compound D, reference compound]: the Cmax worked out at 433 ng/mL.

As for `C=CC(C)(C)c1cc(N[C@H]2CC[C@H](N)C2)n2ncc(Cl)c2n1` [Compound Z-56], the Cmax came to 409 ng/mL.

The test system of the next data set is MV4-11 acute myeloid leukemia xenografts. The experiment in a line: In vivo pharmacodynamic assay, MV4-11 subcutaneous xenograft. Particulars: Table 5; 12.5 mpk, oral, once a day. Details: species or system BALB/c nude mice. The procedure:
In vivo pharmacodynamic assays were performed on (CDX)BALB/c nude mice implanted subcutaneously with MV4-11 acute myeloid leukemia […] xenografts derived from human tumor cell lines.
Experimental protocol: BALB/c nude mice, female, 6-10 weeks old, with weight of approximately 20-23 grams, were maintained in a specific pathogen-free environment, 5 mice in each cage, and 2 cages with 10 mice as one group. All the cages, bedding and water were disinfected before use. All animals had free access to a standard certified commercial laboratory diet. […] Each mouse was implanted subcutaneously with tumor cells (1×10^7 0.1 ml+Matrigel 0.1 ml) in the right flank for tumor growth. When the mean tumor volume reached approximately 165 mm^3, the tumors were randomly grouped according to body weight and tumor volume, and the administration of the compounds began. Test compounds were administered via oral gavage daily. Antitumor efficacy was determined by dividing the mean tumor volume increase of the animals treated with the compound by the mean tumor volume increase of untreated animals.
Tumor volumes were measured twice a week with two-dimensional calipers, and volumes were measured in cubic millimeters. Tumor volume TV=0.5a×b^2, where a represent a long diameter of the tumor and b represents a short diameter of the tumor.
Relative tumor proliferation rate T/C (%), i.e., a percentage value of relative tumor volume of treatment group to relative tumor volume of control group at a certain time point, can be calculated based on an equation of T/C %=TRTV/CRTV×100 (TRTV: mean RTV in treatment group; CRTV: mean RTV in solvent control group; RTV=Vt/V0, V0 being the tumor volume of the animal at the time of grouping, Vt being the tumor volume of the animal after treatment).
Body weight change (%) of tumor-bearing animals was calculated as follows:
(weight at measurement−weight at grouping)/weight at grouping×100.
For the compound `CCC(CC)c1cc(N[C@H]2CC[C@H](N)C2)n2nccc2n1` [Compound D, reference compound], the “Average tumor weight” value turned out to be 0.43 g and the “T/C(%)” value is recorded as 35.91%.

The data set is the same for the next values; noted with them: Table 5; 25 mpk, oral, once a day.
As to `CCC(CC)c1cc(N[C@H]2CC[C@H](N)C2)n2nccc2n1` [Compound D, reference compound], the “Average tumor weight” value stood at 0.04 g and the “T/C(%)” value was determined as 2.90%.
